Assay results taken from US20170275270A1, “BENZYL SUBSTITUTED INDAZOLES” (Bayer Pharma Aktiengesellschaft, priority 2014, published 2017).
Counter-ions that a name gives are not always drawn.

Target: T1, catalytic domain of human Bub1 (amino acids 704-1085) (Homo sapiens, UniProt O43683)
T1 construct: catalytic domain of human Bub1 (amino acids 704-1085); His6 (N); made in house; host or cells: Hi5 insect cells
Assay: Bub1 kinase assay (TR-FRET)
Type: biochemical
Conditions: 10 μM ATP, read-out: Biological Assay 1: Bub1 kinase assay median IC50
Method: To this end, 100-fold concentrated compound solutions (in DMSO) were previously prepared by serial dilution (1:3.4) of 2 mM stocks in a clear low volume 384-well source microtiter plate (Greiner Bio-One, Frickenhausen, Germany), from which 50 nL of compounds were transferred into a black low volume test microtiter plate from the same supplier. […] The resulting mixture (5 μL final volume) was incubated at 22° C. during 60 min., and the reaction was stopped by the addition of 5 μL of an aqueous EDTA-solution (50 mM EDTA, in 100 mM HEPES pH 7.5 and 0.2% (w/v) bovine serum albumin) which also contained the TR-FRET detection reagents (0.2 μM streptavidin-XL665 [Cisbio Bioassays, Codolet, France] and 1 nM anti-phosho-Serine antibody [Merck Millipore, cat. #35-001] and 0.4 nM LANCE EU-W1024 labeled anti-mouse IgG antibody [Perkin-Elmer, product no. AD0077, alternatively a Terbium-cryptate-labeled anti-mouse IgG antibody from Cisbio Bioassays can be used]). The stopped reaction mixture was further incubated 1 h at 22° C. in order to allow the formation of complexes between peptides and detection reagents. Subsequently, the amount of product was evaluated by measurement of the resonance energy transfer from the Eu-chelate-antibody complex recognizing the Phosphoserine residue to the streptavidin-XL665 bound to the biotin moiety of the peptide. […] IC50 values were calculated by fitting the normalized inhibition data to a 4-parameter logistic equation (Minimum, Maximum, IC50, Hill; Y=Max+(Min−Max)/(1+(X/IC50) Hill)).

T1 sequence (O43683 704-1085): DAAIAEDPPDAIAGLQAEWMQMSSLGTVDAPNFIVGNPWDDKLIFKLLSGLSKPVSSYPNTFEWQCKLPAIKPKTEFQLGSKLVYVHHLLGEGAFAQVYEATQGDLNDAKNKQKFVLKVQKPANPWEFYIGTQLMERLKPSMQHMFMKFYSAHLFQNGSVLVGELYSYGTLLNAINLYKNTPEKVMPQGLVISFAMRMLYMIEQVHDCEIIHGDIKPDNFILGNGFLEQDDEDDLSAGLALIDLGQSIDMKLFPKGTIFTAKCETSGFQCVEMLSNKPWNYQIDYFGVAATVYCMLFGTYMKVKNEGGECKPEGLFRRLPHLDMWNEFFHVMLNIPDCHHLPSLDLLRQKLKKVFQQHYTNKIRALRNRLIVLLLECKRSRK

IC50 [nM] | SMILES
4.3 | CCOc1cc(F)c(Cn2nc(-c3ncc(CCN)c(Nc4ccnc(C)c4)n3)c3ccccc32)c(F)c1 [Example 2-9-12, 5-(2-aminoethyl)-2-[1-(4-ethoxy-2,6-difluorobenzyl)-1H-indazol-3-yl]-N-(2-methylpyridin-4-yl)pyrimidin-4-amine, salt with hydrochloric acid]
49 | CCOc1cc(F)c(Cn2nc(-c3ncc(CC4CNC4)c(Nc4ccnc(C)n4)n3)c3ccccc32)c(F)c1 [Example 2-9-20, 5-(azetidin-3-ylmethyl)-2-[1-(4-ethoxy-2,6-difluorobenzyl)-1H-indazol-3-yl]-N-(2-methylpyrimidin-4-yl)pyrimidin-4-amine, salt with hydrochloric acid]
13 | CCOc1cc(F)c(Cn2nc(-c3ncc(CCN)c(Nc4ccncc4Cl)n3)c3ccccc32)c(F)c1 [Example 2-9-21, 5-(2-aminoethyl)-N-(3-chloropyridin-4-yl)-2-[1-(4-ethoxy-2,6-difluorobenzyl)-1H-indazol-3-yl]pyrimidin-4-amine]
9.3 | CCOc1cc(F)c(Cn2nc(-c3ncc(CCN)c(Nc4ccnc(C)n4)n3)c3ccccc32)c(F)c1 [Example 2-9-22, 5-(2-aminoethyl)-2-[1-(4-ethoxy-2,6-difluorobenzyl)-1H-indazol-3-yl]-N-(2-methylpyrimidin-4-yl)pyrimidin-4-amine, salt with hydrochloric acid (1:2)]
8.8 | COCc1cc(Nc2ccncc2OC)nc(-c2nn(Cc3c(F)cc(OCCO)cc3F)c3ccccc23)n1 [Example 2-12-49, 2-{3,5-difluoro-4-[(3-{4-(methoxymethyl)-6-[(3-methoxypyridin-4-yl)amino]pyrimidin-2-yl}-1H-indazol-1-yl)methyl]phenoxy}eth-anol]

Same assay, conditions: Biological Assay 1: Bub1 kinase assay median IC50, 10 μM ATP

SMILES | IC50 [nM]
CCOc1cc(F)c(Cn2nc(-c3nc4c(c(Nc5ccncc5)n3)CNCC4)c3ccccc32)c(F)c1 [Example 2-9-16, 2-[1-(4-ethoxy-2,6-difluorobenzyl)-1H-indazol-3-yl]-N-(pyridin-4-yl)-5,6,7,8-tetrahydro-pyrido[4,3-d]pyr-imidin-4-amine] | 16
COCCOc1cc(F)c(Cn2nc(-c3nc4c(c(Nc5ccnc(C)n5)n3)CNC4)c3ccccc32)c(F)c1 [Example 2-9-25, 2-{1-[2,6-difluoro-4-(2-methoxy-ethoxy)benzyl]-1H-indazol-3-yl}-N-(2-methylpyrimidin-4-yl)-6,7-dihydro-5H-pyrrolo[3,4-d]pyrimidin-4-amine, salt with hydrochloric acid] | 77
COCCOc1cc(F)c(Cn2nc(-c3nc4c(c(Nc5ccncn5)n3)CNC4)c3ccccc32)c(F)c1 [Example 2-9-27, 2-{1-[2,6-difluoro-4-(2-methoxy-ethoxy)benzyl]-1H-indazol-3-yl}-N-(pyrimidin-4-yl)-6,7-dihydro-5H-pyrrolo[3,4-d]pyr-imidin-4-amine, salt with hydrochloric acid] | 20
CCOc1cc(F)c(Cn2nc(-c3ncc(CC4CN(CC(F)(F)F)C4)c(Nc4ccnc(NC(C)=O)c4)n3)c3ccccc32)c(F)c1 [Example 2-11-4, N-{4-[(2-[1-(4-ethoxy-2,6-difluorobenzyl)-1H-indazol-3-yl]-5-{[1-(2,2,2-trifluoroeth-yl)azetidin-3-yl]methyl}pyrimidin-4-yl)amino]pyr-idin-2-yl}acetamide] | 210
CCOc1cc(F)c(Cn2nc(-c3nc(C)c(CC)c(Nc4ccncc4)n3)c3ccccc32)c(F)c1 [Example 2-12-8, 2-[1-(4-ethoxy-2,6-difluorobenzyl)-1H-indazol-3-yl]-5-ethyl-6-methyl-N-(pyridin-4-yl)pyrimidin-4-amine] | 16
CCOc1cc(F)c(Cn2nc(-c3nc4c(c(Nc5ccncc5)n3)CCN(Cc3ccccc3)C4)c3ccccc32)c(F)c1 [Example 2-12-15, 7-Benzyl-2-[1-(4-ethoxy-2,6-difluorobenzyl)-1H-indazol-3-yl]-N-(pyridin-4-yl)-5,6,7,8-tetrahydropyrido[3,4-d]pyrimidin-4-amine] | 68
COc1ccc(Cn2nc(-c3nc(C)c(F)c(Nc4ccncc4)n3)c3ccccc32)cc1 [Example 2-12-24, 5-fluoro-2-[1-(4-methoxybenzyl)-1H-indazol-3-yl]-6-methyl-N-(pyridin-4-yl)-pyrimidin-4-amine] | 55
COCCOc1cc(F)c(Cn2nc(-c3nc(CN4CCOCC4)cc(Nc4ccnc(C(F)F)c4)n3)c3ccccc32)c(F)c1 [Example 2-12-36, 2-{1-[2,6-difluoro-4-(2-methoxyethoxy)benzyl]-1H-indazol-3-yl}-N-[2-(difluoromethyl)pyridin-4-yl]-6-(morpholin-4-ylmethyl)pyrimidin-4-amine] | 57
COCCOc1cc(F)c(Cn2nc(-c3nc(CN4CCOCC4)cc(Nc4ccncc4Cl)n3)c3ccccc32)c(F)c1 [Example 2-12-40, N-(3-chloropyridin-4-yl)-2-{1-[2,6-difluoro-4-(2-methoxyethoxy)benzyl]-1H-indazol-3-yl}-6-(morpholin-4-ylmethyl)pyrimidin-4-amine] | 10
CCOc1cc(F)c(Cn2nc(-c3nc(CN4CCOCC4)cc(Nc4ccnc(O)c4)n3)c3ccccc32)c(F)c1 [Example 2-12-46, 4-({2-[1-(4-ethoxy-2,6-difluorobenzyl)-1H-indazol-3-yl]-6-(morpholin-4-ylmethyl)pyrimidin-4-yl}amino)pyridin-2-ol] | 1100

More lines, now with the values ahead:

IC50 [nM] | SMILES
14 | CC(=O)Nc1cc(Nc2nc(-c3nn(Cc4c(F)cc(OCCO)cc4F)c4ccccc34)nc3c2CCC(C)(C)C3)ccn1 [Example 2-6-42, N-{4-[(2-{1-[2,6-difluoro-4-(2-hydroxyethoxy)benzyl]-1H-indazol-3-yl}-7,7-dimethyl-5,6,7,8-tetrahydroquin-azolin-4-yl)amino]pyridin-2-yl}acetamide]
84 | Cc1cc(Nc2nc(-c3nn(Cc4c(F)cc(OCCO)cc4F)c4ccccc34)nc3c2CCC(C)(C)C3)c(C)cn1 [Example 2-6-43, 2-{4-[(3-{4-[(2,5-dimethylpyridin-4-yl)amino]-7,7-dimethyl-5,6,7,8-tetrahydroquin-azolin-2-yl}-1H-indazol-1-yl)methyl]-3,5-difluorophenoxy} ethanol]
12 | COc1cnccc1Nc1nc(-c2nn(Cc3c(F)cc(OCCO)cc3F)c3ccccc23)nc2c1CCCCC2 [Example 2-6-44, 2-{3,5-difluoro-4-[(3-{4-[(3-methoxypyridin-4-yl)amino]-6,7,8,9-tetrahydro-5H-cyclohepta[d]pyrimidin-2-yl}-1H-indazol-1-yl)methyl]phenoxy}ethanol]
44 | CCOc1cc(F)c(Cn2nc(-c3ncc(CC4CNC4)c(Nc4cc(C)ncc4C)n3)c3ccccc32)c(F)c1 [Example 2-9-19, 5-(azetidin-3-ylmethyl)-N-(2,5-dimethylpyridin-4-yl)-2-[1-(4-ethoxy-2,6-difluorobenzyl)-1H-indazol-3-yl]pyrimidin-4-amine, salt with hydrochloric acid]
38 | COCCOc1cc(F)c(Cn2nc(-c3nc4c(c(Nc5ccncc5Cl)n3)CNC4)c3ccccc32)c(F)c1 [Example 2-9-24, N-(3-chloropyridin-4-yl)-2-{1-[2,6-difluoro-4-(2-meth-oxyethoxy)benzyl]-1H-indazol-3-yl}-6,7-dihydro-5H-pyrrolo[3,4-d]pyrimidin-4-amine]
180 | COCCOc1cc(F)c(Cn2nc(-c3nc4c(c(Nc5cc(C)ncc5C)n3)CNC4)c3ccccc32)c(F)c1 [Example 2-9-26, 2-{1-[2,6-difluoro-4-(2-methoxy-ethoxy)benzyl]-1H-indazol-3-yl}-N-(2,5-dimethylpyridin-4-yl)-6,7-dihydro-5H-pyrrolo[3,4-d]pyr-imidin-4-amine]
8.4 | CCOc1cc(F)c(Cn2nc(-c3nc(C)cc(Nc4ccncc4)n3)c3ccccc32)c(F)c1 [Example 2-12-1, 2-[1-(4-ethoxy-2,6-difluorobenzyl)-1H-indazol-3-yl]-6-methyl-N-(pyridin-4-yl)pyrimidin-4-amine]
17 | COCCOc1cc(F)c(Cn2nc(-c3nc(CN4CCOCC4)cc(Nc4ccncn4)n3)c3ccccc32)c(F)c1 [Example 2-12-37, 2-{1-[2,6-difluoro-4-(2-methoxyethoxy)benzyl]-1H-indazol-3-yl}-6-(morpholin-4-ylmethyl)-N-(pyrimidin-4-yl)pyrimidin-4-amine]
44 | COCCOc1cc(F)c(Cn2nc(-c3nc4c(c(Nc5ccnc(C)n5)n3)CCC4)c3ccccc32)c(F)c1 [Example 2-12-55, 2-{1-[2,6-difluoro-4-(2-methoxyethoxy)benzyl]-1H-indazol-3-yl}-N-(2-methylpyrimidin-4-yl)-6,7-dihydro-5H-cyclopenta[d]pyrimidin-4-amine]
7 | COCCOc1cc(F)c(Cn2nc(-c3nc4c(c(Nc5ccncn5)n3)CCC4)c3ccccc32)c(F)c1 [Example 2-12-56, 2-{1-[2,6-difluoro-4-(2-methoxyethoxy)benzyl]-1H-indazol-3-yl}-N-(pyrimidin-4-yl)-6,7-dihydro-5H-cyclopenta[d]pyrimidin-4-amine]
